Source: ChEMBL document CHEMBL4725373, “Introduction of Scaffold Nitrogen Atoms Renders Inhibitors of the Malarial l-Lactate Transporter, PfFNT, Effective against the Gly107Ser Resistance Mutation” (J Med Chem, 2020)
Active and inactive are the calls of the source. No cut-off for these calls is given here.

What was measured:
[1] = (§1) Inhibition of Plasmodium falciparum FNT G107S mutant expressed in Saccharomyces cerevisiae W303-1A del-jen1 ady2-del (MATa, can1-100, ade2-loc, his3-11-15, leu2-3,-112, trp1-1-1, ura3-1, jen1::kanMX4, ady2::hphMX4) assessed as reduction in [1-14C]-L-lactate uptake incubated for 10 to 15 mins followed by [1-14C]-L-lactate addition and measured after 120 secs by liquid scintillation counting method
Plasmodium falciparum [2] = experiment: Antiplasmodial activity against Plasmodium falciparum 3D7 assessed as reduction in parasitemia incubated for 48 hrs supplemented with fresh medium containing compound at 24 hrs by LSR II FACS method; format: functional, organism-based
[3] = as §1, with “FNT” for “FNT G107S mutant”, “30” for “120”
Plasmodium falciparum [4] = experiment: Antiplasmodial activity against Plasmodium falciparum 3D7 assessed as reduction in parasitemia after 24 hrs by LSR II FACS method; format: functional, organism-based; details: 3D7, 24 h
[5] = as §1, with “20” for “10 to 15”, “addition” for “addition and measured after 120 secs”
[6] = as §1, with “FNT” for “FNT G107S mutant”, “20” for “10 to 15”, “addition” for “addition and measured after 120 secs”
Plasmodium falciparum [7] = experiment: Antiplasmodial activity against Plasmodium falciparum 3D7 assessed as reduction in parasite regrowth at 0.75 uM incubated for 14 days followed by compound washout and measured after 30 days; format: functional, organism-based; details: time 14.0 day
Plasmodium falciparum [8] = experiment: Antiplasmodial activity against Plasmodium falciparum 3D7 assessed as reduction in parasite regrowth at 0.45 uM incubated for 14 days followed by compound washout and measured after 7 days; format: functional, organism-based; details: time 14.0 day

SMILES	IC50 [1]	IC50 [3]	further results
COc1ccc(C(=O)/C=C(\O)C(F)(F)C(F)(F)F)cn1	260 nM	110 nM	EC50 (Plasmodium falciparum [2]): 3880 nM
O=C(/C=C(\O)C(F)(F)C(F)(F)F)c1cc[nH]c1	13000 nM	200 nM	–
COc1ccc(C(=O)/C=C(\O)C(F)(F)C(F)(F)F)cc1	–	–	EC50 (Plasmodium falciparum [4]): 3400 nM; IC50 [5]: 2600 nM; IC50 [6]: 140 nM
O=C(/C=C(\O)C(F)(F)C(F)(F)F)c1cnc2ccccc2c1	96000 nM	240 nM	–
Cn1ccc(C(=O)/C=C(\O)C(F)(F)C(F)(F)F)c1	14000 nM	130 nM	–
CC(C)(O)CC(=O)/C=C(\O)C(F)(F)C(F)(F)F	490000 nM	1100 nM	–
O=C(/C=C(\O)C(F)(F)C(F)(F)F)c1ccccn1	580 nM	150 nM	EC50 (Plasmodium falciparum [2]): 13500 nM
O=C(/C=C(\O)C(F)(F)C(F)(F)F)c1ccncc1	22000 nM	150 nM	–
COc1ccc(CC(=O)/C=C(\O)C(F)(F)C(F)(F)F)cc1	69000 nM	1900 nM	–
O=C(/C=C(\O)C(F)(F)C(F)(F)F)c1cccnc1	630 nM	110 nM	Activity (Plasmodium falciparum [7]): Active; EC50 (Plasmodium falciparum [2]): 240 nM
O=C(/C=C(\O)C(F)(F)C(F)(F)F)c1cc2ccccc2o1	17000 nM	190 nM	–
O=C(/C=C(\O)C(F)(F)CO)c1cccnc1	–	5500 nM	–
O=C(/C=C(\O)C(F)(F)C(F)(F)F)c1ccc(Cl)cn1	510 nM	230 nM	EC50 (Plasmodium falciparum [2]): 14000 nM
Cc1ccc(C(=O)/C=C(\O)C(F)(F)C(F)(F)F)cn1	1700 nM	150 nM	–
Cc1[nH]nc(C(F)(F)F)c1Cc1sc2c(c1C(=O)N1C[C@](C)(O)CO1)c(=O)n(C)c(=O)n2C(C)C	–	–	Activity (Plasmodium falciparum [2]): inactive
O=C(/C=C(\O)C(F)(F)C(F)(F)F)/C=C/c1ccccc1	26000 nM	290 nM	–
O=C(/C=C(\O)C(F)(F)C(F)(F)F)Nc1ccccc1	378000 nM	18000 nM	–
O=C(/C=C(\O)C(F)(F)C(F)(F)F)c1ccc[nH]1	12000 nM	160 nM	–
COc1ccc(CCC(=O)/C=C(\O)C(F)(F)C(F)(F)F)cc1	6300 nM	190 nM	–
COc1ccc(C(=O)/C=C(\O)C(F)(F)C(F)(F)F)c(O)c1	–	–	EC50 (Plasmodium falciparum [4]): 140 nM; Activity (Plasmodium falciparum [8]): inactive; IC50 [5]: 20000 nM; IC50 [6]: 170 nM
CCCCC(F)(F)/C(O)=C/C(=O)c1cccnc1	24000 nM	360 nM	EC50 (Plasmodium falciparum [2]): 20100 nM
O=C(/C=C(\O)C(F)(F)C(F)(F)F)c1cnccn1	1200 nM	460 nM	–
O=C(/C=C(\O)C(F)(F)C(F)(F)F)c1cccnn1	3800 nM	860 nM	–
